Measured values published in ChEMBL document CHEMBL4507268 (2021).

Columns and labels:
Details in all cases: Compound concentration 1.0 uM
[1] = target: T1, Serine/threonine-protein kinase Nek2 (Homo sapiens) (UniProt P51955)
T1 sequence (whole entry): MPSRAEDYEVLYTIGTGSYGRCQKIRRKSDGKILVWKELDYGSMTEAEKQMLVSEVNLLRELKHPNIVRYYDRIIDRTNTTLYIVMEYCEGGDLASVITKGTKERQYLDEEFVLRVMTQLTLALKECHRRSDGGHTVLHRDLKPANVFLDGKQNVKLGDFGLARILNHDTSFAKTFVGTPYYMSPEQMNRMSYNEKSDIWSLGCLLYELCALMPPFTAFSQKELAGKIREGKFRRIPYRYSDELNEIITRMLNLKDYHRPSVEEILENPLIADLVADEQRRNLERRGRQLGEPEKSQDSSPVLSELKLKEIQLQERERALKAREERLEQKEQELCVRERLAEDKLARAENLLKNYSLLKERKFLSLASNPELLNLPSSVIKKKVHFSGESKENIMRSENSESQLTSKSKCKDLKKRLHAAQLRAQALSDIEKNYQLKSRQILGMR

[2] = target: Tyrosine-protein kinase Fer (Homo sapiens) (UniProt P16591)
[3] = target: T2, Mitogen-activated protein kinase kinase kinase 3 (Homo sapiens) (UniProt Q99759)
T2 sequence (whole entry): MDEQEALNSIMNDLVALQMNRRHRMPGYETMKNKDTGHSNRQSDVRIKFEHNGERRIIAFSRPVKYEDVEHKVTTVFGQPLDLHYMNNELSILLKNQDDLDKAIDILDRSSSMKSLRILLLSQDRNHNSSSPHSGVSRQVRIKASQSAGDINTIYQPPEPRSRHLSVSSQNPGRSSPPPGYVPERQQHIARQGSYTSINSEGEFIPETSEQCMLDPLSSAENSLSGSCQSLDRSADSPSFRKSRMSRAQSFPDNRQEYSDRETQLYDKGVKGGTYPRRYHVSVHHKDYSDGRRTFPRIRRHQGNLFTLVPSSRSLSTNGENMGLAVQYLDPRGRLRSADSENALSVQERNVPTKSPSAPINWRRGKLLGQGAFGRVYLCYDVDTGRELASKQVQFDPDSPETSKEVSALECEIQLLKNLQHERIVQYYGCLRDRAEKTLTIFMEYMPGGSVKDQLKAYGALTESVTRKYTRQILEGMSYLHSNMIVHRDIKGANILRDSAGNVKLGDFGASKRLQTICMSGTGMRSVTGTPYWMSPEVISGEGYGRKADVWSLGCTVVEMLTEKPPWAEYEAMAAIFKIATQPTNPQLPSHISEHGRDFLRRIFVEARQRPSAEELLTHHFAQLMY

[4] = target: Serine/threonine-protein kinase Nek7 (Homo sapiens) (UniProt Q8TDX7)
[5] = target: TRAF2 and NCK-interacting protein kinase (Homo sapiens) (UniProt Q9UKE5)
[6] = target: T3, Inhibitor of nuclear factor kappa-B kinase subunit alpha (Homo sapiens) (UniProt O15111)
T3 sequence (whole entry): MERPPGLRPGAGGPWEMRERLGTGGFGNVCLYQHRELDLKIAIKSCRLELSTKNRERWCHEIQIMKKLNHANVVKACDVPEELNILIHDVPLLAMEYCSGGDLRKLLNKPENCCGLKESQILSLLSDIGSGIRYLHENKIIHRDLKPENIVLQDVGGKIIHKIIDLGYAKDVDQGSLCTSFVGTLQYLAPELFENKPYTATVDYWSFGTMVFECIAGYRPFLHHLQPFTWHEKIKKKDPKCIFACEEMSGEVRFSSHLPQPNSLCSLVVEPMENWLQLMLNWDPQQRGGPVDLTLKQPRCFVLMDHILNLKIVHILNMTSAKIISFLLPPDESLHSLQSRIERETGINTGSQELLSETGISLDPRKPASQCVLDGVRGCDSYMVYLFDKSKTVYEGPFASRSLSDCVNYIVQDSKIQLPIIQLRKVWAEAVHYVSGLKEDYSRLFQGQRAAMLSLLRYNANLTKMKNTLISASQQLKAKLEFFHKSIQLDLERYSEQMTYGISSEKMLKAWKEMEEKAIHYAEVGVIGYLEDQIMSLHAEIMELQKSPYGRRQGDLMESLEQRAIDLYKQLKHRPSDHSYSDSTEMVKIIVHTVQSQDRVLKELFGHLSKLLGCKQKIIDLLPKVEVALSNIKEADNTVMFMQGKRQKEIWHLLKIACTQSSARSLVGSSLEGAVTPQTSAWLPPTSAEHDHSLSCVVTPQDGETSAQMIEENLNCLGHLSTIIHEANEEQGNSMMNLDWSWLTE

[7] = target: Focal adhesion kinase 1 (Homo sapiens) (UniProt Q05397)
[8] = target: Tyrosine-protein kinase CSK (Homo sapiens) (UniProt P41240)
[9] = target: Cyclin-dependent kinase-like 3 (Homo sapiens) (UniProt Q8IVW4)
[10] = target: Tyrosine-protein kinase Lck (Homo sapiens) (UniProt P06239)
[11] = target: PI3-kinase p110-delta/p85-alpha (Homo sapiens) (UniProt P27986+O00329)
[12] = target: Activated CDC42 kinase 1 (Homo sapiens) (UniProt Q07912)
[13] = target: MAPK/MAK/MRK overlapping kinase (Homo sapiens) (UniProt Q9UQ07)

Measured: % residual kinase activity

Sequence of Tyrosine-protein kinase CSK (Homo sapiens) (P41240 2-450 limits assumed): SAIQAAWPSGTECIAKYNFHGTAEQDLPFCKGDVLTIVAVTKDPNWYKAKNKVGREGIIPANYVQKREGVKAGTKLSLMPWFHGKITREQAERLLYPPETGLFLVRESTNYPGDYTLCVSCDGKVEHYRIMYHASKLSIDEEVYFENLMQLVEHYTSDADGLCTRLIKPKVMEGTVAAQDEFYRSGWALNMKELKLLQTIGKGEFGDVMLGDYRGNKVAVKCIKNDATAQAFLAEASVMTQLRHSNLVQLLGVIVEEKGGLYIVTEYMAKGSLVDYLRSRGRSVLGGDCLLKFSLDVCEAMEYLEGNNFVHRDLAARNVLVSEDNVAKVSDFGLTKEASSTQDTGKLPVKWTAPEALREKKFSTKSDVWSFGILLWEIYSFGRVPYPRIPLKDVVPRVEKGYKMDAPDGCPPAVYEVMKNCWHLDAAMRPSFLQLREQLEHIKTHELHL
Sequence of Tyrosine-protein kinase Fer (Homo sapiens) (P16591 whole entry, looked up): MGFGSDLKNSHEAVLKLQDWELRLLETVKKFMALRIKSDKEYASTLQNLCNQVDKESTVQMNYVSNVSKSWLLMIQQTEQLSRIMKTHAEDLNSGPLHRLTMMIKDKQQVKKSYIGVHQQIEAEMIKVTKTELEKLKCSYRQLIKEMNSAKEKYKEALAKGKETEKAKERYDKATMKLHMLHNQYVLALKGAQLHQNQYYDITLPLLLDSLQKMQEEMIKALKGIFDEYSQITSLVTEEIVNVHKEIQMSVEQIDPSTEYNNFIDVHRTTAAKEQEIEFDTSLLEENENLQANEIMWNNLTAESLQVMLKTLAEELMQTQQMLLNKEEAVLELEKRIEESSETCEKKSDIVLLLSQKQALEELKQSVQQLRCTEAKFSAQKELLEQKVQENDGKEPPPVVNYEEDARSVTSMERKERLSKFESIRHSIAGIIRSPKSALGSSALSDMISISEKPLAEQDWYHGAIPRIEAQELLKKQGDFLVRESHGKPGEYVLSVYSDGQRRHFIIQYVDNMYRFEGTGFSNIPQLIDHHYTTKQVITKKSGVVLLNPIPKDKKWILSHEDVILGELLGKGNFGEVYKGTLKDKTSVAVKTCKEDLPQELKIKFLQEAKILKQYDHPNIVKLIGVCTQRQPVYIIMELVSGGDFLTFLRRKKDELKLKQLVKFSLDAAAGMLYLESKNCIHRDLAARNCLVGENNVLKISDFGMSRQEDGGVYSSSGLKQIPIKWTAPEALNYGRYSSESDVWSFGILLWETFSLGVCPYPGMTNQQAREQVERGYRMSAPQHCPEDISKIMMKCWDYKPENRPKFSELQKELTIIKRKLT
Sequence of Serine/threonine-protein kinase Nek7 (Homo sapiens) (Q8TDX7 whole entry, looked up): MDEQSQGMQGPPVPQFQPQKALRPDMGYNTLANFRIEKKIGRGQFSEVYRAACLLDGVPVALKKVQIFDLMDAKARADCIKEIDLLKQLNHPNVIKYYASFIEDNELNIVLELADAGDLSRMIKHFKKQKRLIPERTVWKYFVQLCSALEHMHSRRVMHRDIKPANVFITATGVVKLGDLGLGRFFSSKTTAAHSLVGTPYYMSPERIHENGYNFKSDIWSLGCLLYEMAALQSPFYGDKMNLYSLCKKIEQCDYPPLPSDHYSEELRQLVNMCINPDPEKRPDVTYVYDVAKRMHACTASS
Sequence of TRAF2 and NCK-interacting protein kinase (Homo sapiens) (Q9UKE5 whole entry, looked up): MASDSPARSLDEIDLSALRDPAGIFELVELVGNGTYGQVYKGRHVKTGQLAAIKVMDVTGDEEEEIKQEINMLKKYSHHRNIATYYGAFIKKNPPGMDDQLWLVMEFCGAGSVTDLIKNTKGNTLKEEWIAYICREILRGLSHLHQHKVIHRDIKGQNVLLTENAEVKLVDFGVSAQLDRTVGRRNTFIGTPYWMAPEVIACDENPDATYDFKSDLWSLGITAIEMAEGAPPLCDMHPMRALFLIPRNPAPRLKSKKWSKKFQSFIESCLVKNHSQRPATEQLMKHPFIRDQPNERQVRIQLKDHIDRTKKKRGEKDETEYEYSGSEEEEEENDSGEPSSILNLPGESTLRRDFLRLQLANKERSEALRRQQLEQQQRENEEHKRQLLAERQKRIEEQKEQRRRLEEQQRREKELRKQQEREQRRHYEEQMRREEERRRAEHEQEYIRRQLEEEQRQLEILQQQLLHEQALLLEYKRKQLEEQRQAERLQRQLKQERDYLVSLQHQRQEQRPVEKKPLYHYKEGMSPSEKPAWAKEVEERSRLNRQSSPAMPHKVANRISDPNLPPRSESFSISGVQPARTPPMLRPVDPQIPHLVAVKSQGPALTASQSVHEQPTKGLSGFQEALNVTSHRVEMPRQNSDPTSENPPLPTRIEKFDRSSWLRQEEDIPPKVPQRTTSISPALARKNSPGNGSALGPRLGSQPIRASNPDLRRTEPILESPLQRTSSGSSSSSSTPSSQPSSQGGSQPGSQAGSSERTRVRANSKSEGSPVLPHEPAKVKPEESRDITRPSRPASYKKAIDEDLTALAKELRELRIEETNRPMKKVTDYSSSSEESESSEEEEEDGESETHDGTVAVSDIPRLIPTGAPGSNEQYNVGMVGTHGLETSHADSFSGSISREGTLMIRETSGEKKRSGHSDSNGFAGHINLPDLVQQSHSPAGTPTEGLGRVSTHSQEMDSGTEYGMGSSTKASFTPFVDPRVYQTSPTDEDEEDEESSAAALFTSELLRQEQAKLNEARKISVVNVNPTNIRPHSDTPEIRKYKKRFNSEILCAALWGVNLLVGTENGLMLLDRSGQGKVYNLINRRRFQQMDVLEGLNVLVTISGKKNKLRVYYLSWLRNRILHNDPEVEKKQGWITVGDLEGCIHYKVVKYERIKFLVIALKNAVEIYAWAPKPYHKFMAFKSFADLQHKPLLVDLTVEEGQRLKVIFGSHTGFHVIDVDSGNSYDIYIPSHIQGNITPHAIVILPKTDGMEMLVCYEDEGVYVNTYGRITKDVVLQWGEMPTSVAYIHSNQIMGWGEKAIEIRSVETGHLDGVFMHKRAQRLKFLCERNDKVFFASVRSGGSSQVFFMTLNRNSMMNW
Sequence of Cyclin-dependent kinase-like 3 (Homo sapiens) (Q8IVW4 whole entry, looked up): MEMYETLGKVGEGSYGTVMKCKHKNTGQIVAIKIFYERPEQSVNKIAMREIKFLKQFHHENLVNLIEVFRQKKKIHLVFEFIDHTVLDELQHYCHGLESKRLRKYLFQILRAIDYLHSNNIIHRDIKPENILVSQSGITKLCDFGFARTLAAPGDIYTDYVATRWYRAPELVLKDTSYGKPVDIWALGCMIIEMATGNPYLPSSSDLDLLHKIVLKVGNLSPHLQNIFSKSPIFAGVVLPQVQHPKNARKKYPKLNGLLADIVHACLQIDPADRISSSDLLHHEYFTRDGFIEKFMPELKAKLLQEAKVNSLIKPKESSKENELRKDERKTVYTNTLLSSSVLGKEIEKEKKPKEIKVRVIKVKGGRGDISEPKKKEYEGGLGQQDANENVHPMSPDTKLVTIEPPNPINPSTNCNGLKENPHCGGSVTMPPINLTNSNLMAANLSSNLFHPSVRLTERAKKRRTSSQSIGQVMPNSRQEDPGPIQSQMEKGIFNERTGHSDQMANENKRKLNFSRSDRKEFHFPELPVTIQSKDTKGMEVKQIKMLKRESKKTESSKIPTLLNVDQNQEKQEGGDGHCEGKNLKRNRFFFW
Sequence of Tyrosine-protein kinase Lck (Homo sapiens) (P06239 2-509 limits assumed): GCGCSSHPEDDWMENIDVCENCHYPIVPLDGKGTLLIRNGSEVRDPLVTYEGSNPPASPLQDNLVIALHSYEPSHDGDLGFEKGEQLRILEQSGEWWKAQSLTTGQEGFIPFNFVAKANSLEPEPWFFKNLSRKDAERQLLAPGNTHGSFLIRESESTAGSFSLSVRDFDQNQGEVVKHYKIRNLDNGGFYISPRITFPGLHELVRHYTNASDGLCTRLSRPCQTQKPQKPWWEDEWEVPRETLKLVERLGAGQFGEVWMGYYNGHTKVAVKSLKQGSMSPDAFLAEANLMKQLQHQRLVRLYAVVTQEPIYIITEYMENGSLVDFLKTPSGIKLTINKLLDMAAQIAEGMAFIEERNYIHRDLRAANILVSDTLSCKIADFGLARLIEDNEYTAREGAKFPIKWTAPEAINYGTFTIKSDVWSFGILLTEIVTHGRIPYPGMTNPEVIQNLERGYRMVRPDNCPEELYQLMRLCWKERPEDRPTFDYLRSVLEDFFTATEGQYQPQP
Sequence of MAPK/MAK/MRK overlapping kinase (Homo sapiens) (Q9UQ07 whole entry): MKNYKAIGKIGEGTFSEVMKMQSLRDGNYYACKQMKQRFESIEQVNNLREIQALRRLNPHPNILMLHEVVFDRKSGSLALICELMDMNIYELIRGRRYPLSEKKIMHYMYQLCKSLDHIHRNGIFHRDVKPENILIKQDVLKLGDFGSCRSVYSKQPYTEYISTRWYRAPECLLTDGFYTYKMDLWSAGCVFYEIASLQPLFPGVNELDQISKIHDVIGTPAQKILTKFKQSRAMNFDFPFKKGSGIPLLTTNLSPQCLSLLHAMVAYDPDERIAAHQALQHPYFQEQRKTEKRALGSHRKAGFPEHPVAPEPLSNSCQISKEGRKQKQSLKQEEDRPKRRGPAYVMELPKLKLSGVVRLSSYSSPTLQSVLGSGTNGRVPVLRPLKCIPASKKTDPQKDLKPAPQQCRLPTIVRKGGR

CN1CCN(c2cnc3c(C4CCN(C(=O)c5ccc(OC(F)(F)F)cc5N)CC4)ncnc3c2)CC1 [BAY-885]
inactive: [1] 111% | [2] 38% | [3] 94% | [4] 106% | [5] 89% | [6] 99% | [7] 101% | [8] 102% | [9] 113% | [10] 98% | [11] 102% | [12] 101% | [13] 94%
